In patent US20250032438A1, “METHOD FOR ALLEVIATING OXIDATIVE STRESS” (Nissui Corporation, priority 2021, published 2025):

What was measured:
[1] = system: Human alveolar epithelial cells; assay: Example 2: effect of protection from oxidative stress (CCK8 survival after 800 μM hydrogen peroxide); format: cell-based; conditions: 24 h pre-incubation, 800 μM hydrogen peroxide 8 h, FIG. 2
Experimental: Human alveolar epithelial cells were seeded on a 96-well microplate at 8×10^3/well, and cultured overnight at 37° C. and 5% CO2. […] The medium was removed by suction, and then exchanged for a medium containing 800 μM hydrogen peroxide, followed by incubation at 37° C. and 5% CO2 for 8 hours. CCK8 (DOJINDO LABORATORIES) was added to each well, and the absorbance of the sample at 450 nm after 1.5 hours was measured. The relative survival rate of each treatment section was calculated, where the absorbance value of a well without hydrogen peroxide treatment was 1. • Test section 1: control • Test section 2: hydrogen peroxide • Test section 3: 10 μM arachidonic acid (C20:4n-6) ethyl ester+hydrogen peroxide • Test section 4: 30 μM arachidonic acid (C20:4n-6) ethyl ester+hydrogen peroxide • Test section 5: 10 μM C32:4n-6 ethyl ester+hydrogen peroxide • Test section 6: 30 μM C32:4n-6 ethyl ester+hydrogen peroxide

[2] = system: Human retinal pigment epithelial cells; assay: Example 3: effect of protection from oxidative stress (CCK8 survival after 300 μM hydrogen peroxide); format: cell-based; conditions: compared to the non-treatment condition or arachidonic acid (C20:4n-6) ethyl ester at the same treatment concentration (10 or 30 μM); 24 h pre-incubation, 300 μM hydrogen peroxide 24 h; FIG. 3
Experimental: The medium was removed by suction, and then exchanged for a medium containing 300 μM hydrogen peroxide, followed by incubation at 37° C. and 5% CO2 for 24 hours. CCK8 (DOJINDO LABORATORIES) was added to each well, and the absorbance of the sample at 450 nm after 1.5 hours was measured.

[3] = system: Human retinal pigment epithelial cells; assay: Example 4: effect of protection from oxidative stress (CCK8 survival after hydrogen peroxide); format: cell-based; conditions: compared to the non-treatment condition or eicosapentaenoic acid (C20:5n-3) ethyl ester at the same treatment concentration (10 or 30 μM); 24 h pre-incubation, hydrogen peroxide 24 h; FIG. 4
Experimental: The medium was removed by suction, and then exchanged for a medium containing […] hydrogen peroxide, followed by incubation at 37° C. and 5% CO2 for 24 hours. CCK8 (DOJINDO LABORATORIES) was added to each well, and the absorbance of the sample at 450 nm after 1.5 hours was measured. The relative survival rate of each treatment section was calculated, where the absorbance value of a well without hydrogen peroxide treatment was 1. • Test section 1: control • Test section 2: hydrogen peroxide • Test section 3: 10 μM eicosapentaenoic acid […] ethyl ester+hydrogen peroxide • Test section 4: 30 μM eicosapentaenoic acid […] ethyl ester+hydrogen peroxide • Test section 5: 10 μM C34:5n-3 ethyl ester+hydrogen peroxide • Test section 6: 30 μM C34:5n-3 ethyl ester+hydrogen peroxide

[4] = system: Human alveolar epithelial cells; conditions: 800 μM hydrogen peroxide for 1 hour, compared to non-treatment section; FIG. 1
Experimental: Human alveolar epithelial cells were seeded on a 96-well microplate at 1.5×10^4/well, and cultured overnight at 37° C. and 5% CO2. The medium was removed by suction, and exchanged for a medium containing 40 μM DCFH-DA (Wako Pure Chemical Industries, Ltd.), followed by incubation for 30 minutes. […] The fluorescence intensity at each of 485 nm in excitation and 538 nm in emission was measured with a fluorescence plate reader.

[5] = compared to the section treated with hydrogen peroxide alone, 10 or 30 μM

## CCCCC/C=C\C/C=C\C/C=C\C/C=C\CCCCCCCCCCCCCCCC(=O)OCC [C32:4n-6 ethyl ester]
[1]; compared to arachidonic acid (C20:4n-6) ethyl ester at the same treatment concentration (10 or 30 μM)
  relative cell survival rate after hydrogen peroxide treatment: significantly higher
[1]; [5]
  relative cell survival rate after hydrogen peroxide treatment: significantly higher
[2]
  relative cell survival rate after hydrogen peroxide treatment: significantly higher

## CCC=CCC=CCC=CCC=CCC=CCCCCCCCCCCCCCCCCCC(=O)OCC [C34:5n-3 ethyl ester]
[3]
  relative cell survival rate after hydrogen peroxide treatment: significantly higher

## CCCCC/C=C\C/C=C\C/C=C\C/C=C\CCCC(=O)OCC [arachidonic acid (C20:4n-6) ethyl ester, reference compound]
[1]; [5]
  relative cell survival rate after hydrogen peroxide treatment: significantly lower

## OO [hydrogen peroxide]
[4]
  relative production amount of ROS (reactive oxygen species): significantly larger
